Holding throughout (type): binding
Assay [1] has as its system 53BP1 TTD. The experiment in a line: Histone peptide microarray, 53BP1 TTD. Particulars: 53BP1 TTD hits, average signal per peptide. Here is the method:
(§1) Peptide microarrays were fabricated using an Aushon 2470 microarrayer and used as described ([Cornett et al., 2017]) with the following modifications. Protein and antibody hybridization steps were performed in buffer containing 25 mM HEPES pH 7.5, 100 mM NaCl, 0.5% BSA (w/v), and 0.1% NP-40. Slides were washed 3 × 5 min in PBS supplemented with 0.1% Tween-20 between each hybridization step. Antibodies used were primary anti-GST (Sigma #7781, 1:2,000 dilution) and an AlexaFluor 647-labeled secondary antibody (Life Technologies A-21245, 1:5,000 dilution). […] Full lists of peptides queried by array analysis are in Supplementary Table S2.

Assay [2] concerns Abcam #ab8895, anti-H3K4me1. The experiment in a line: Histone peptide microarray, Abcam ab8895. Particulars: Abcam ab8895 (anti-H3K4me1) hits, average signal per peptide. Here is the method:
as §1

The subject of assay [3] is Active Motif #39161, anti-H3K9me3. Description: Histone peptide microarray, Active Motif 39161. To be noted: Active Motif 39161 (anti-H3K9me3) hits. Here is the method: as §1
Assay [4] concerns CST 9733 (anti-H3K27me3). The experiment in a line: Histone peptide microarray, CST 9733. Particulars: histone peptide array signal normalized to the highest peptide average per subarray, hits; CST 9733 LOT:14 dilution 1:5,000. The procedure:
as §1

For assay [5], the system named is Millipore #07-449, anti-H3K27me3. Description: Histone peptide microarray, Millipore 07-449. To be noted: Millipore 07-449 (anti-H3K27me3) hits, average signal per peptide. Here is the method:
as §1

Where no end group is shown, it is not given here. Peg = not defined here

Turning to “AR(Me2a)TK(Ac)QTARK(Ac)STGGK(Ac)APRK(Ac)QL-K(Biot)-NH2 [H3.1R2me2aK4acK9acK14acK18ac]”, the figures for the “Avg Signal” value in assay [1], in assay [2] and in assay [3] were 0.1712, 0.0001948 and 0.00047, respectively.

Take “ARTK(Ac)QTARKSTGGK(Ac)APRKQL-K(Biot)-NH2 [H3.1K4acK14ac]”: the “Avg Signal” value in assay [1] was found to be 0.2064; in assay [2] it was 0.001132; in assay [3], 0.0007938.

In the case of “ARTK(Me3)QTARKST-Peg-Biot [H3.1K4me3 H3.1(1-11)]”, in assay [4], the “Avg Signal” value came to 1.495e-5.

Regarding “ARTK(Me3)QTARKSTGGKAPRKQL-K(Biot)-NH2 [H3.1K4me3 H3.1(1-20)]”, the “Avg Signal” value in assay [4] is recorded as 0.001817.

“ARTKQTAR(Me)KSTGGKAPRKQL-Peg-Biot (chain 2 KSTGGKAPRKQL-{Peg-Biot}; not fully specified; reading uncertain) [Peptide H3.1R8me1]”: the figures for the “Avg Signal” value in assay [4] and in assay [2] were 0.01735 and 0.1046, respectively.

Regarding “ARTKQTAR-NleSTGGKAPRKQL-Peg-Biot [Peptide H3.1K9-Nle]”, the “Avg Signal” value turned out to be 0.001582 in assay [5], 0.0002703 in assay [4] and 0.1441 in assay [2].

Consider “ARTKQTARK(Ac)STGGKAPRK(Ac)QL-K(Biot)-NH2 [H3.1K9acK18ac]”, for which the “Avg Signal” value in assay [1] is on record as 0.0364; in assay [5], 0.006063; in assay [2], 0.2595; in assay [3], 0.0006444.

“ARTKQTARK(Ac)STGGKAPRKQL-K(Biot)-NH2 (not fully specified; K9 acetyl; K(Biot)-NH2) [Peptide H3.1K9ac]”: the “Avg Signal” value in assay [1] is 0.1022; in assay [2], 0.168; in assay [3], 0.0003455.

For the substance “ARTKQTARKSTGGK(Ac)APRK(Ac)QL-K(Biot)-NH2 [H3.1K14acK18ac]”, the “Avg Signal” value in assay [1] came to 0.1587; in assay [2], 0.1741.

Turning to “ARTKQTARKpSTGGKAPRKQL-K(Biot)-NH2 [Peptide H3.1S10p]”, the “Avg Signal” value in assay [1] is listed as 0.0218; in assay [5] it was 0.004546; in assay [2], 0.06974.

For the substance “ARTKQpTAR(Me2a)K(Me3)STGGKAPRKQL-K(Biot)-NH2 [H3.1T6pR8me2aK9me3]”, the “Avg Signal” value in assay [5] amounted to 0.006631; in assay [4] it was 0.008944; in assay [3], 0.6906.

Consider “ARTKQpTARKSTGGKAPRKQL-K(Biot)-NH2 [Peptide H3.1T6p]”, for which the “Avg Signal” value stood at 0.07045 in assay [1], 0.0003583 in assay [2] and 0.0005946 in assay [3].

In the case of “ATKAARKSAPATGGVK(Me3)KPHRYRPG-GK(Biotin)-OH [H3.1K36me3 H3.1(21-44)]”, the “Avg Signal” value in assay [4] worked out at 0.0006093.

“Ac-APRKQLATK(Ac)AARKSAPSTGG-Peg-Biot [Peptide H3.3K23ac]”: the entries for the “Avg Signal” value in assay [4] and in assay [3] were 0.0001716 and 0.006441, respectively.

As to “Ac-APRKQLATKAAR(Me2a)KSAPSTGG-Peg-Biot [Peptide H3.3R26me2a]”, the “Avg Signal” value in assay [5] came out at 0.001966; in assay [4], 0.0004634; in assay [3] it was 0.01154.

For the substance “Ac-APRKQLATKAARK(Ac)pSAPSTGG-Peg-K(Biot)-NH2 [H3.3K27acS28p]”, the “Avg Signal” value in assay [5] was 0.0005992; in assay [4] it was 0.0002202; in assay [3] it was 0.002338.

As to “Ac-APRKQLATKAARK(Me3)pSAPSTGG-Peg-Biot [H3.3K27me3S28p]”, the “Avg Signal” value in assay [5] was 0.1105; in assay [4], 0.1559; in assay [3] it was 0.0007938.

For “Ac-APRKQLATKAARK(Me)SAPSTGG--Peg-Biot [Peptide H3.3K27me1]”, the “Avg Signal” value stood at 0.1127 in assay [1], 0.003394 in assay [5] and 0.01351 in assay [2].

On to “Ac-GK(Ac)GGAK(Ac)RHRK(Me2)VLRDNIQ-Peg-Biot [H4K12acK16acK20me2]”, for which, in assay [4], the “Avg Signal” value was 0.0001487.

“Ac-GK(Ac)GGAK(Ac)RHRK(Me)VLRDNIQ-Peg-Biot [H4K12acK16acK20me1]”: the “Avg Signal” value in assay [5] came out at 0.001642; in assay [4], 0.0009983; in assay [3] it was 0.005445.

With “Ac-GK(Ac)GGAK(Ac)RHRKVLRDNIQ-Peg-Biot [H4K12acK16ac H4(11-27)]”, the “Avg Signal” value in assay [4] amounted to 3.787e-5.

Consider “Ac-GKGGAKRHRK(Me)VLRDNIQ-Peg-Biot [Peptide H4K20me1]”, for which the “Avg Signal” value is recorded as 0.5244 in assay [1], 0.003452 in assay [2] and 7.157e-5 in assay [3].

In the case of Ac-RRYQKSTELL-Peg-Biot [H3.1.1(52-61)], the “Avg Signal” value was found to be 0.0002743 in assay [5], 3.787e-5 in assay [4] and 0.0005198 in assay [3].

Take “Ac-SAAKASQSRSAKAGLT-Peg-Biotin [yH2A(10-25)]”: in assay [4], the “Avg Signal” value came to 6.218e-5.

Consider “Ac-SGR(Me2a)GK(Ac)QGGKARAKAKTR-Peg-Biot [H2AR3me2aK5ac]”, for which the “Avg Signal” value in assay [1] was 0.03444; in assay [2] it was 0.0107; in assay [3] it was 0.03211.

Take “Ac-SGRGK(Ac)GGK(Ac)GLGK(Ac)GGAK(Ac)RHRKVLR-Peg-Biot [H4K5acK8acK12acK16ac]”: the entries for the “Avg Signal” value in assay [1] and in assay [2] were 0.1158 and 0.005523, respectively.

Consider “Ac-SGRGK(Ac)GGKGLGKGGAKRHRKVLR-Peg-Biot [Peptide H4K5ac]”, for which the “Avg Signal” value was determined as 0.009315 in assay [1], 0.0009033 in assay [2] and 0.04019 in assay [3].

“Ac-SGRGK(Ac)TGGKARAKAKSR-Peg-Biotin [Peptide H2A.XK5ac]”: the “Avg Signal” value in assay [4] worked out at 0.0001351.

Turning to “Ac-SGRGK(But)GGK(But)GLGK(But)GGAKRHRKVLR-Peg-Biot [H4K5butK8butK12but]”, the “Avg Signal” value in assay [5] is recorded as 0.01591; in assay [4], 0.0001351; in assay [2], 0.000718; in assay [3], 0.01514.

Turning to “Ac-SGRGK(Me)GGK(Ac)GLGK(Ac)GGAK(Ac)RHRKVLR-Peg-Biot [H4K5me1K8acK12acK16ac]”, the “Avg Signal” value in assay [5] was 0.002528; in assay [4], 1.398e-6; in assay [2], 0.01497; in assay [3], 0.0048.

On to “Ac-SGRGKGGK(Ac)GLGK(Ac)GGAKRHRKVLR-Peg-Biot [Peptide H4K8acK12ac]”, for which the “Avg Signal” value in assay [5] is on record as 0.006396; in assay [4], 0.0001351; in assay [2], 0.002906; in assay [3], 0.0006444.

In the case of “Ac-SGRGKGGK(Ac)GLGKGGAK(Ac)RHRKVLR-Peg-Biot [Peptide H4K8acK16ac]”, the entries for the “Avg Signal” value in assay [1], in assay [2] and in assay [3] were 0.2331, 0.002102 and 0.003751, respectively.

“Ac-SGRGKGGK(Ac)GLGKGGAKRHRKVLR-Peg-Biot [Peptide H4K8ac]”: the “Avg Signal” value in assay [1] is given as 0.08696; in assay [2], 0.01217; in assay [3], 0.001167.

Take “Ac-SGRGKGGKGLGK(Ac)GGAK(Ac)RHRKVLR-Peg-Biot [H4K12acK16ac H4(1-23)]”: the “Avg Signal” value in assay [4] turned out to be 3.927e-5.

For the substance “Ac-SGRGKGGKGLGK(Ac)GGAKRHRK(Ac)VLR-Peg-Biot [Peptide H4K12acK20ac]”, the “Avg Signal” value worked out at 0.007438 in assay [5], 0.0004147 in assay [4], 0.005228 in assay [2] and 0.009155 in assay [3].

For “Ac-SGRGKTGGKARAKAKSR-Peg-Biotin [H2A.X(1-17)]”, the “Avg Signal” value in assay [4] turned out to be 3.787e-5; in assay [3] it was 0.0004918.

As for “Ac-pSGCitGK(Ac)QGGKARAKAKTR-Peg-Biot [H2AS1pCit3K5ac]”, the “Avg Signal” value in assay [1] was 0.04418; in assay [5], 0.006425; in assay [2] it was 0.004421; in assay [3], 0.0032.

For “H3.1.1(15-34) H3.1(15-34): arrayed peptide ID 202 or 2551; same annotation and length”, in assay [4], the “Avg Signal” value is 0.0005485.

For “KSAPSTGGVK(Me3)KPHRYRPGTV-K(biotin)-NH2 [H3.3K36me3 H3.3(27-46)]”, in assay [4], the “Avg Signal” value is recorded as 0.00263.

Turning to “KSAPSTGGVK(Me)KPHRYRPGT-G-K(Biot)-NH2 [Peptide H3.3K36me1]”, the “Avg Signal” value worked out at 0.009576 in assay [5], 0.0007823 in assay [4], 0.003496 in assay [2] and 0.0005946 in assay [3].

Turning to “PEPAK(Me)SAPAPKKGSKKAVTKAQKK-Peg-Biot [Peptide H2BK5me1]”, the “Avg Signal” value is 0.1012 in assay [1], 0.01581 in assay [5], 0.004522 in assay [2] and 0.004346 in assay [3].

On to “PRRRRRRGSSGAGGRGRTCS-Peg-Biot [Peptide H2A.B]”, for which the “Avg Signal” value in assay [4] was 0.

Regarding “pSGRGK(Ac)QGGK(Ac)ARAK(Ac)AK(Ac)TR-Peg-Biot [H2AS1pK5acK9acK13acK15ac(noN-ac)]”, the “Avg Signal” value turned out to be 0.06769 in assay [1], 0.001023 in assay [5] and 0.0006853 in assay [2].
